Data: patent US20140057953A1, “BIARYL DERIVATIVES AS SELECTIVE 17BETA-HYDROXYSTEROID DEHYDROGENASE TYPE 2 INHIBITORS” (priority 2011, published 2014)

How the values were obtained:
ERβ = ERβ (Homo sapiens, UniProt Q92731); assay: ER affinity assay (ERβ), [3H]-E2 displacement; conditions: Relative Binding Affinity, E2 = 100%; recombinant human protein
Procedure: (§1) The binding affinity of selected compounds to the ERα and ERβ was determined according to Zimmermann et al. (Zimmermann, J. et al., 3. Steroid Biochem. Mol. Biol., 94:57-66 (2005)) using recombinant human proteins. Briefly, 0.25 μM of ERα or ERβ, respectively, were incubated with [^3H]-E2 (10 nM) and test compound for 1 h at room temperature. The potential inhibitors were dissolved in DMSO (5% final concentration). Evaluation of non-specific-binding was performed with diethylstilbestrol (10 μM). After incubation, ligand-receptor complexes were selectively bound to hydroxyapatite (5 g/60 ml TE-buffer). The formed complex was separated, washed and resuspended in ethanol. For radiodetection, scintillator cocktail (Quickszint 212, Zinsser Analytic, Frankfurt) was added and the samples were measured in a liquid scintillation counter (Rack Beta Primo 1209, Wallac, Turku). […] The compound concentration to displace 50% of the receptor bound [^3H]-E2 were determined. Unlabelled E2 was used as a reference. For determination of the relative binding affinity (RBA) the ratio was calculated according to the following equation: […]
(§2) After the assay was established and validated a modification was made to increase throughput. […] Results were reported as RBA ranges.

ERα = target: T1, ERα (Homo sapiens, UniProt P03372); assay: ER affinity assay (ERα), [3H]-E2 displacement; conditions: Relative Binding Affinity, E2 = 100%; recombinant human protein
T1 sequence (P03372 1-595): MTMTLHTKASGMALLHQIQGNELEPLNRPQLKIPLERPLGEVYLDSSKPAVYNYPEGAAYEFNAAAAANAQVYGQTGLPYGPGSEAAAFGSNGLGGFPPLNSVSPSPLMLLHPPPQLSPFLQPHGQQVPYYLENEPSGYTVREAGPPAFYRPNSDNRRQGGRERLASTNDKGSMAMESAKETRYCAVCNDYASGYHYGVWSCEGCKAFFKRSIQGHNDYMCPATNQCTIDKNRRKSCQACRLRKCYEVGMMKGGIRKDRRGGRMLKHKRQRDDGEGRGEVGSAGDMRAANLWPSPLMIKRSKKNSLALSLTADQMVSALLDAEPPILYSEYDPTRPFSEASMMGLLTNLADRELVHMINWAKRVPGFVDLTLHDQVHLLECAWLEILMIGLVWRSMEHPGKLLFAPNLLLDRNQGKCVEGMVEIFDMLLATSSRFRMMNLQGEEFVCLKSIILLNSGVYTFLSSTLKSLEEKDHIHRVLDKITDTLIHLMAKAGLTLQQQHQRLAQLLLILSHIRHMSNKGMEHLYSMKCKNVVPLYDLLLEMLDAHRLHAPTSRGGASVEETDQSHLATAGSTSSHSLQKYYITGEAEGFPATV
Procedure: as §1, §2

17β-HSD2 = target: T2, 17β-HSD2 (Homo sapiens, UniProt P37059); assay: Inhibition of 17β-HSD2 in cell-free assay; format: biochemical; parameters: 17β-HSD2 was obtained directly from the microsomal fraction; from tissue; host or cells: human placenta, microsomal fraction; conditions: human placenta, microsomal fraction, substrate E2 500 nM, cofactor NAD+ 1500 μM; for inhibition at 1 µM: inhibitor concentration 1 μM
T2 sequence (P37059 1-387): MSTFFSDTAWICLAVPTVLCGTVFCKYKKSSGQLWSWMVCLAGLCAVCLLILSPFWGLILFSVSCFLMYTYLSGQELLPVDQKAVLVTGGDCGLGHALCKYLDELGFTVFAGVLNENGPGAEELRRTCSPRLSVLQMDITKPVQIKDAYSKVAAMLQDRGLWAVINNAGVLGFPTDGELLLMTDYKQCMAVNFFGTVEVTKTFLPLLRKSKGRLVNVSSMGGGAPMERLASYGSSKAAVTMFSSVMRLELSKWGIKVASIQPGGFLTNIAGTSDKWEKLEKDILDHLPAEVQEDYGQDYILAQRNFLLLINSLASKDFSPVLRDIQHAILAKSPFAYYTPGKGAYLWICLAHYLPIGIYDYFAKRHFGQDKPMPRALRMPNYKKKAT
Procedure: (§3) Fresh human placenta was homogenized. Cytosolic and microsomal fractions were separated by centrifugation at 1000 g, 10000 g and 150000 g. 17β-HSD2 was obtained directly from the microsomal fraction. For the partial purification of 17β-HSD1, the cytosolic fraction was precipitated with ammonium sulfate. Aliquots containing 17β-HSD1 or 17β-HSD2 were stored frozen.
Inhibitor stock solutions were prepared in DMSO. Final concentration of DMSO was adjusted to 1% in all samples. The enzymatic reaction was started by addition of a mixture of unlabelled- and [^3H]-E2 (final concentration: 500 nM, 0.11 μCi). After 20 min at 37° C., the incubation was stopped with HgCl2 and the mixture was extracted with ether. After evaporation, the steroids were dissolved in acetonitrile. E1 and E2 were separated using acetonitrile/water (45:55) as mobile phase in a C18 RP chromatography column (Nucleodur C18, 3 μm, Macherey-Nagel, Duren) connected to a HPLC-system (Agilent 1100 Series, Agilent Technologies, Waldbronn). Detection and quantification of the steroids were performed using a radioflow detector (Berthold Technologies, Bad Wildbad). The conversion rate was calculated according to the following equation: […]

17β-HSD1 = target: T3, 17β-HSD1 (Homo sapiens, UniProt P14061); assay: Inhibition of 17β-HSD1 in cell-free assay; format: biochemical; conditions: human placenta, cytosolic fraction, substrate E1 500 nM, cofactor NADH 500 μM
T3 construct: For the partial purification of 17β-HSD1, the cytosolic fraction was precipitated with ammonium sulfate; from tissue; host or cells: human placenta, cytosolic fraction
T3 sequence (P14061 1-328): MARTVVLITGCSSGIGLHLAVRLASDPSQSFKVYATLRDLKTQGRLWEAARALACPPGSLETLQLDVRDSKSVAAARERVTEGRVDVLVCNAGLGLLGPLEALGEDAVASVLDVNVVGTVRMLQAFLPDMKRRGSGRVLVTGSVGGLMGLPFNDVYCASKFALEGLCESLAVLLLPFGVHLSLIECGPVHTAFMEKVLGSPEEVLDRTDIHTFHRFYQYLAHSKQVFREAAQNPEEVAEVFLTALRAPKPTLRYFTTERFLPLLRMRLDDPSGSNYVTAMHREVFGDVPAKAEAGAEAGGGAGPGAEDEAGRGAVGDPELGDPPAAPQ
Procedure: as §3
The 17β-HSD1 inhibition assay was performed similarly to the 17β-HSD2 test. The cytosolic fraction was incubated with NADH [500 μM], test compound and a mixture of unlabelled- and [^3H]-E1 (final concentration: 500 nM, 0.15 μCi) for 10 min at 37° C. Further treatment of the samples and HPLC separation was carried out as mentioned above for 17β-HSD2.

Chain of ERβ (Q92731 whole entry): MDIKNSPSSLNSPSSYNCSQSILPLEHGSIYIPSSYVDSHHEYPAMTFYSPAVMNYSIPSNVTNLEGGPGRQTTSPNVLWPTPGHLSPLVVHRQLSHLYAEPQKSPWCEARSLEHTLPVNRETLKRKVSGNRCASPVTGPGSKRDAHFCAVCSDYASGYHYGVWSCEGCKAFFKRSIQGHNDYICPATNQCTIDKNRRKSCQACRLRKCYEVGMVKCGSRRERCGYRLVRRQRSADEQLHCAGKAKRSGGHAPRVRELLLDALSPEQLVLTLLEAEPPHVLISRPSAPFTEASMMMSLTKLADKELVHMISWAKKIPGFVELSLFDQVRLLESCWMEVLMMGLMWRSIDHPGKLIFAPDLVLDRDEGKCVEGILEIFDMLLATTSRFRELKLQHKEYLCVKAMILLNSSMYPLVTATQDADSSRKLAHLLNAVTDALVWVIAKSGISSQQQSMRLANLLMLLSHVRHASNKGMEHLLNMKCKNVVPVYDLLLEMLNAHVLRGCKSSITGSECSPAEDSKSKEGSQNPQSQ

Compound | ERβ RBA (%) (ERβ) | ERα RBA (%) (ERα) | also measured
COc1cccc(CN(C)C(=O)c2ccc(-c3cccc(OC)c3)cc2)c1 [compound 1, 3′-Methoxy-N-(3-methoxybenzyl)-N-methylbiphenyl-4-carboxamide] | <0.1 | <0.1 | –
Cc1cccc(-c2ccc(C(=O)N(C)Cc3cccc(O)c3)cc2)c1 [compound 4, N-(3-hydroxybenzyl)-N,3′-dimethylbiphenyl-4-carboxamide] | <0.1 | <0.1 | –
COc1ccc(-c2cccc(C(=O)N(C)Cc3cccc(OC)c3)c2)cc1 [compound 5, 4′-Methoxy-N-(3-methoxybenzyl)-N-methylbiphenyl-3-carboxamide] | – | – | inhibition at 1 µM (17β-HSD2): 11%; % inhibition 17β-HSD1 (17β-HSD1; inhibitor concentration 1 μM): n.i.^e
CN(Cc1cccc(O)c1)C(=O)c1cccc(-c2ccc(O)cc2)c1 [compound 6, 4′-Hydroxy-N-(3-hydroxybenzyl)-N-methylbiphenyl-3-carboxamide] | <0.1 | <0.1 | –
CN(Cc1cccc(O)c1)C(=O)c1cccc(-c2cccc(O)c2)c1 [compound 8, 3′-Hydroxy-N-(3-hydroxybenzyl)-N-methylbiphenyl-3-carboxamide] | – | – | IC50 (17β-HSD2): 0.481 µM; IC50 (17β-HSD1): 3.8 µM
COc1cccc(CCN(C)C(=O)c2ccc(-c3cccc(OC)c3)s2)c1 [compound 17, N-(3-Methoxyphenethyl)-5-(3-methoxyphenyl)-N-methylthiophene-2-carboxamide] | – | – | inhibition at 1 µM (17β-HSD2): 31%; % inhibition 17β-HSD1 (17β-HSD1; inhibitor concentration 1 μM): n.i.^e
CN(CCc1cccc(O)c1)C(=O)c1ccc(-c2cccc(O)c2)s1 [compound 18, N-(3-Hydroxyphenethyl)-5-(3-hydroxyphenyl)-N-methylthiophene-2-carboxamide] | – | – | inhibition at 1 µM (17β-HSD2): 37%; inhibition at 1 µM (17β-HSD1; inhibitor concentration 1 μM): 23%
COc1ccc(-c2ccc(C(=O)N(C)Cc3cccc(OC)c3)s2)cc1 [compound 25, N-(3-Methoxybenzyl)-5-(4-methoxyphenyl)-N-methylthiophene-2-carboxamide] | <0.1 | <0.1 | –
CN(Cc1cccc(O)c1)C(=O)c1ccc(-c2ccccc2)s1 [compound 30, N-(3-Hydroxybenzyl)-N-methyl-5-phenylthiophene-2-carboxamide] | <0.1 | <0.1 | –
COc1cccc(-c2ccc(C(=O)N(C)Cc3ccccc3)s2)c1 [compound 33, N-Benzyl-5-(3-methoxyphenyl)-N-methylthiophene-2-carboxamide] | <0.1 | <0.1 | –
COc1ccc(-c2ccc(C(=O)N(C)Cc3ccccc3)s2)cc1 [compound 35, N-Benzyl-5-(4-methoxyphenyl)-N-methylthiophene-2-carboxamide] | <0.1 | <0.1 | –
CN(Cc1cccc(O)c1)C(=O)c1ccc(-c2ccc(F)cc2)s1 [compound 42, 5-(4-Fluorophenyl)-N-(3-hydroxybenzyl)-N-methylthiophene-2-carboxamide] | <0.1 | <0.1 | –
COc1cccc(-c2ccc(C(=O)N(C)Cc3cccc(O)c3)s2)c1 [compound 45, N-(3-Hydroxybenzyl)-5-(3-methoxyphenyl)-N-methylthiophene-2-carboxamide] | <0.1 | <0.1 | IC50 (17β-HSD1): 23.3 µM
COc1cccc(-c2ccc(C(=O)N(C)c3cccc(OC)c3)s2)c1 [compound 47, N,5-bis(3-Methoxyphenyl)-N-methylthiophene-2-carboxamide] | <0.1 | <0.1 | –
COc1ccc(-c2ccc(C(=O)N(C)c3cccc(OC)c3)s2)cc1 [compound 55, N-(3-Methoxyphenyl)-5-(4-methoxyphenyl)-N-methylthiophene-2-carboxamide] | <0.1 | <0.1 | –
COc1cccc(N(C)C(=O)c2ccc(-c3cccc(SC)c3)s2)c1 [compound 63, N-(3-methoxyphenyl)-N-methyl-5-(3-(methylthio)phenyl)thiophene-2-carboxamide] | <0.1 | <0.1 | –
COc1cccc(N(C)C(=O)c2ccc(-c3cccc(C)c3)s2)c1 [compound 64, N-(3-methoxyphenyl)-N-methyl-5-m-tolylthiophene-2-carboxamide] | <0.1 | <0.1 | –
COc1cccc(N(C)C(=O)c2ccc(-c3c(F)ccc(OC)c3F)s2)c1 [compound 65, 5-(2,6-Difluoro-3-methoxyphenyl)-N-(3-methoxyphenyl)-N-methylthiophene-2-carboxamide] | <0.1 | <0.1 | –
COc1cccc(N(C)C(=O)c2ccc(-c3cccc(C)c3F)s2)c1 [compound 66, 5-(2-Fluoro-3-methylphenyl)-N-(3-methoxyphenyl)-N-methylthiophene-2-carboxamide] | <0.1 | <0.1 | –
COc1cccc(-c2ccc(C(=O)N(C)c3ccccc3)s2)c1 [compound 67, 5-(3-Methoxyphenyl)-N-methyl-N-phenylthiophene-2-carboxamide] | <0.1 | <0.1 | –
COc1cccc(-c2ccc(C(=O)N(C)c3cccc(C)c3)s2)c1F [compound 72, 5-(2-Fluoro-3-methoxyphenyl)-N-methyl-N-(m-tolylthiophene)-2-carboxamide] | <0.1 | <0.1 | –
Cc1cccc(-c2ccc(C(=O)N(C)c3ccccc3F)s2)c1 [compound 74, N-(2-fluorophenyl)-N-methyl-5-m-tolylthiophene-2-carboxamide] | <0.1 | <0.1 | –
